Measurements from patent publication US5648376A, “Immunosuppressant diterpene compound” (Pharmagenesis, Inc., priority 1995, dated 1997).

Assays:
[1] = tested on: proliferation of lymphocytes in a mixed lymphocyte reaction; test: Murine mixed lymphocyte reaction (MLR); type: cell-based, mouse; conditions: at 0.1 μg/ml; C57Bl/6 responder, irradiated Balb/C stimulator spleen cells; 4 days
Experimental: A measure of immunosuppression that serves as a model for transplantation rejection is inhibition of cell proliferation in a mixed lymphocyte reaction (MLR) assay (Bradley, in Mishell, 1980). In these experiments, an MLR is induced by co-incubating responder (R) cells from one mouse strain (C57B1/6) with stimulator (S) cells from another mouse strain (Balb/C).
The responder cells proliferate in the presence of the allogenic stimulator cells. The stimulator cells are irradiated so they are unable to proliferate. After 72 hours incubation, tritiated thymidine is added to the mixed cell cultures, and incorporation of the labeled nucleotide into DNA is assayed as an index of cell proliferation.
In the MLR test reported in Example 7, responder cells were co-cultured in microtitre wells with stimulator cells, in the presence of selected concentrations of subglutinol between 0.01 and 0.3 μg/ml. The wells receiving no subglutinol would be expected to be maximally stimulated. The cells were cultured for 4 days, and labeled with [^3 H] thymidine during the last 18 hours of incubation. […]
Several controls were conducted in the MLR assay. […] The spontaneous proliferation of R was also measured. […] Cells were harvested and counted as above. […]

[2] = tested on: human peripheral blood lymphocytes (PBLs); test: Suppression of PBL proliferation in vitro (anti-CD3 X-35 stimulated, [3H] thymidine incorporation); type: cell-based; conditions: X-35 5 ng/ml; 72 hours; subglutinol between 1 and 20 μg/ml
Experimental: One measure of immunosuppression is suppression of stimulated proliferation of peripheral blood lymphocytes (PBLs) in vitro. In the assay detailed in Example 5, PBLs were activated in vitro by addition of anti-CD3 monoclonal antibody (X-35 antibody). Subglutinol or vehicle (control) was added to each culture, at selected concentrations. After 72 hours incubation, tritiated thymidine was added to the culture medium, and incorporation of tritium into DNA was assayed as a measure of DNA synthesis associated with cell proliferation.
This example examines the ability of subglutinol to suppress the proliferation of human peripheral blood lymphocytes (PBLs) when stimulated with X-35 (AMAC #0178), an anti-CD3 surface antigen antibody. Human PBLs were prepared using an established method (Boyum). Human blood buffy coat samples, approximately 25 ml/donor, were obtained from the Stanford University Medical Center Blood Bank. […] The cell pellets were suspended in 10 ml of X-Vivo tissue culture medium (BioWhittakar, Walkersville, Md) and counted using a hemocytometer. […]
Plates were incubated at 37° C. in a 7% CO2 incubator for 72 hours. […] Samples were counted in a liquid scintillation counter (1205 Betaplate, Pharmacia LKB Biotechnology). […]

[3] = Evaluation of potential toxicity (MTT assay); type: cell-based; conditions: human, pbls, 21 hours plus 3 hours MTT
Experimental: Potential toxicity of the mixture was assessed by measurement the effect of subglutinol on the ability of cultured cells to reduce MTT (3-[4,5-Dimethylthiazol-2-yl]-2,5-diphenyltetrazolium bromide), an index of cellular respiration that is more sensitive in the detection of cytotoxicity than methods involving measurement of DNA replication (Green, 1984).
Potential cytotoxicities of test samples were assessed by measuring the effect of subglutinol on the reduction of MTT (3-[4,5-Dimethylthiazole-2-yl]-2,5-diphenyl-tetrazolium bromide) by cultured cells. MTT, a yellow-colored compound, is reduced by mitochondrial enzymes to form a purple crystalline reduction product, formazane, providing an index of cellular respiration as well as a sensitive assay for cytotoxicity (Green, 1984).
Cytotoxicity was assessed in cultured human PBLs. A stock solution of MTT (Sigma, St. Louis, Mo.), 5 mg/ml phosphate buffered saline, pH 7.4, was prepared and stored in the dark at 4° C. PBLs were cultured with various concentrations of test samples in flat-bottom 96 well tissue culture plate (Costar #3595) using the same conditions as in Example 5 above, except that X-35 was replaced with the appropriate medium.
Untreated cells in medium alone were used as controls in each experiment. Following 21 hours of incubation of cells, 25 μl of MTT solution was added to each well. After an additional three hour incubation, the experiment was terminated by adding a solution of 10% sodium dodecyl sulfate in 0.01 N HCl.
Following overnight incubation at 37° C. (to solubilize the formazane crystals), optical density was determined at 570-650 nm in a microplate reader (Thermo max, Molecular Devices, Calif.). Data are expressed as % cytotoxicity. Subglutinol concentrations of 0.03, 0.1, and 0.3 μg/ml gave % cytotoxicity values of 0, 20, and 28%, respectively.

[4] = tested on: IL-1 action on mouse thymocytes; test: Inhibition of IL-1 action on mouse thymocytes (proliferation, [3H] thymidine incorporation); type: cell-based; conditions: at about 0.2 μg/ml; rIL-1β 0.08 ng/ml plus PHA 10 μg/ml; 72 hours; range 0.012 to 0.76 μg/ml
Experimental: The ability of subglutinol to suppress the cell-proliferative effect of IL-1 in mouse thymocytes as an index of IL-1 action (O'Gara, 1990) was also examined. In this study, mouse thymocytes in culture were stimulated with IL-1 in the presence of phytohemagglutinin and increasing concentrations of subglutinol. The cells were cultured for 72 hours, and during the last four hours, incubated with tritiated thymidine. […] Details are given in Example 6.
Mouse thymocytes were prepared, and the action of IL-1, which stimulates thymocyte proliferation, was measured using standard techniques (O'Gara, 1990). Three to six week old C3H/HeN male mice (Simonson Laboratory, Gilroy, Calif.) were sacrificed by CO2 inhalation. Thymi were removed, separated from adherent non-thymic tissue, homogenized in Hank's balanced salt solution (HBSS, Gibco) using a glass homogenizer, and centrifuged at 200×g for 10 minutes at 15° C. Following an additional wash in HBSS, the thymocytes were resuspended in RPMI 1640 medium (Gibco) containing 50 μM 2-mercaptoethanol, 2 mM glutamine, 1 mM sodium pyruvate, non-essential amino acids 100 U/ml penicillin, 100 μg/ml streptomycin and 10% heat-inactivated fetal bovine serum. […]
Subglutinol was added, 25 μl per well, to obtain final concentrations of subglutinol between 0.001 and 0.78 μg/ml. […] Cells were harvested and counted as above. […]

C=C1CCC2C3(C)CC(C=C(C)C)OC3CCC2(C)C1Cc1c(O)c(C)c(C)oc1=O (stereo not drawn) [subglutinol]
percent inhibition of stimulation in MLR (FIG. 12) [1]: Nearly complete inhibition | percent suppression of proliferation of anti-CD3 stimulated PBLs (FIG. 10) [2]: dose-dependent suppression | cytotoxicity at 24 h ([3]; 0.03 μg/ml): 0% | cytotoxicity at 24 h ([3]; 0.1 μg/ml): 20% | cytotoxicity at 24 h ([3]; 0.3 μg/ml): 28% | inhibition of IL-1 action on thymocytes (FIG. 11) [4]: Nearly complete inhibition
